Entries after “also recorded” stand apart in the source; their conditions may differ.
Columns and labels:
[1] = system: actinic keratoses (AK) lesions of face and scalp; assay: AK lesion clearance, bilaterally controlled randomized clinical trial of ALA blue light PDT
[2] = Daily home questionnaire of side effects, first 4 days after PDT; assay type: in vivo, human; conditions: for Pain Score Mean (0-10 visual-analog scale): average of 23 patients
Experimental: Several secondary endpoints were also measured. For pain assessment, patients were asked every 5 to 10 min during illumination to report their pain on a 0 to 10 visual-analog (VAS) scale. Erythema was recorded photographically at Day 1 and on Day 4 post PDT. A side effect profile was recorded by each patient in a daily home questionnaire to document the presence or absence of eleven different signs and symptoms in the 4 days immediately following PDT (see Table 2).

SMILES: NCC(=O)CCC(=O)O [ALA, 5-aminolevulinic acid]
- Clinical response, Difference (A − B) ([1]; Face, 30 min cohort): −1.7%
- Clinical response (% reduction in AK counts at 3 months) ([1]; Face, 30 min cohort, Side A (test PDT, 30 min blue light)): 55.4%
- Clinical response (% reduction in AK counts at 3 months) ([1]; Face, 30 min cohort, Side B (control PDT)): 57.1%
- Clinical response, Difference (A − B) ([1]; Face, 45 min cohort): 1.1%
- Clinical response (% reduction in AK counts at 3 months) ([1]; Face, 45 min cohort, Side A (test PDT, 45 min blue light)): 59.8%
- Clinical response (% reduction in AK counts at 3 months) ([1]; Face, 45 min cohort, Side B (control PDT)): 58.6%
- Clinical response, Difference (A − B) ([1]; Face, 60 min cohort): −3.8%
- Clinical response (% reduction in AK counts at 3 months) ([1]; Face, 60 min cohort, Side A (test PDT, 60 min blue light)): 57.5%
- Clinical response (% reduction in AK counts at 3 months) ([1]; Face, 60 min cohort, Side B (control PDT)): 61.2%
- Clinical response, Difference (A − B) ([1]; Face, all patients): −1.4%
- Clinical response (% reduction in AK counts at 3 months) ([1]; Face, all patients, Side A (test PDT, substantially no pre-illumination gap)): 57.7%
- Clinical response (% reduction in AK counts at 3 months) ([1]; Face, all patients, Side B (control PDT, 1 hr pre-illumination gap, blue light 1000 sec)): 59.1%
- Clinical response, Difference (A − B) ([1]; Scalp, 30 min cohort): −1.2%
- Clinical response (% reduction in AK counts at 3 months) ([1]; Scalp, 30 min cohort, Side A (test PDT, 30 min blue light)): 44.8%
- Clinical response (% reduction in AK counts at 3 months) ([1]; Scalp, 30 min cohort, Side B (control PDT)): 46.0%
- Clinical response, Difference (A − B) ([1]; Scalp, 45 min cohort): 3%
- Clinical response (% reduction in AK counts at 3 months) ([1]; Scalp, 45 min cohort, Side A (test PDT, 45 min blue light)): 41.2%
- Clinical response (% reduction in AK counts at 3 months) ([1]; Scalp, 45 min cohort, Side B (control PDT)): 38.2%
- Clinical response, Difference (A − B) ([1]; Scalp, 60 min cohort): 3.7%
- Clinical response (% reduction in AK counts at 3 months) ([1]; Scalp, 60 min cohort, Side A (test PDT, 60 min blue light)): 45.2%
- Clinical response (% reduction in AK counts at 3 months) ([1]; Scalp, 60 min cohort, Side B (control PDT)): 41.5%
- Clinical response, Difference (A − B) ([1]; Scalp, all patients): 1.9%
- Clinical response (% reduction in AK counts at 3 months) ([1]; Scalp, all patients, Side A (test PDT, substantially no pre-illumination gap)): 43.8%
- Clinical response (% reduction in AK counts at 3 months) ([1]; Scalp, all patients, Side B (control PDT, 1 hr pre-illumination gap, blue light 1000 sec)): 41.9%
- Clinical efficacy (lesion clearance), test PDT versus control PDT ([1]; face and scalp, 3 months, test of non-inferiority): nearly identical on both sides of the face and scalp; also recorded: statistically indistinguishable
- Bleeding ([2]; Side A (test PDT), DAY 1): 0, 0 percentage of patients
- Blisters ([2]; Side A (test PDT), DAY 1): 13, 13 percentage of patients
- Burning ([2]; Side A (test PDT), DAY 1): 65, 65 percentage of patients
- Crusting ([2]; Side A (test PDT), DAY 1): 9 percentage of patients
- Itching ([2]; Side A (test PDT), DAY 1): 43, 43 percentage of patients
- Open sores ([2]; Side A (test PDT), DAY 1): 0, 0 percentage of patients
- Peeling ([2]; Side A (test PDT), DAY 1): 4 percentage of patients
- Redness ([2]; Side A (test PDT), DAY 1): 91, 91 percentage of patients
- Stinging ([2]; Side A (test PDT), DAY 1): 65, 65 percentage of patients
- Swelling ([2]; Side A (test PDT), DAY 1): 26 percentage of patients
- Pain Score Mean (0-10 visual-analog scale) ([2]; Side A (test PDT), DAY 1): 3.0
- Bleeding ([2]; Side A (test PDT), DAY 2): 17 percentage of patients
- Blisters ([2]; Side A (test PDT), DAY 2): 4 percentage of patients
- Burning ([2]; Side A (test PDT), DAY 2): 52, 52 percentage of patients
- Crusting ([2]; Side A (test PDT), DAY 2): 9 percentage of patients
- Itching ([2]; Side A (test PDT), DAY 2): 74, 74 percentage of patients
- Open sores ([2]; Side A (test PDT), DAY 2): 9, 9 percentage of patients
- Peeling ([2]; Side A (test PDT), DAY 2): 4 percentage of patients
- Redness ([2]; Side A (test PDT), DAY 2): 100, 100 percentage of patients
- Stinging ([2]; Side A (test PDT), DAY 2): 70, 70 percentage of patients
- Swelling ([2]; Side A (test PDT), DAY 2): 26, 26 percentage of patients
- Pain Score Mean (0-10 visual-analog scale) ([2]; Side A (test PDT), DAY 2): 2.5
- Bleeding ([2]; Side A (test PDT), DAY 3): 13 percentage of patients
- Blisters ([2]; Side A (test PDT), DAY 3): 17 percentage of patients
- Burning ([2]; Side A (test PDT), DAY 3): 35, 35 percentage of patients
- Crusting ([2]; Side A (test PDT), DAY 3): 30 percentage of patients
- Itching ([2]; Side A (test PDT), DAY 3): 70 percentage of patients
- Open sores ([2]; Side A (test PDT), DAY 3): 9, 9 percentage of patients
- Peeling ([2]; Side A (test PDT), DAY 3): 22 percentage of patients
- Redness ([2]; Side A (test PDT), DAY 3): 91 percentage of patients
- Stinging ([2]; Side A (test PDT), DAY 3): 39, 39 percentage of patients
- Swelling ([2]; Side A (test PDT), DAY 3): 9 percentage of patients
- Pain Score Mean (0-10 visual-analog scale) ([2]; Side A (test PDT), DAY 3): 1.6
- Bleeding ([2]; Side A (test PDT), DAY 4): 17 percentage of patients
- Blisters ([2]; Side A (test PDT), DAY 4): 4 percentage of patients
- Burning ([2]; Side A (test PDT), DAY 4): 26, 26 percentage of patients
- Crusting ([2]; Side A (test PDT), DAY 4): 35, 35 percentage of patients
- Itching ([2]; Side A (test PDT), DAY 4): 65, 65 percentage of patients
- Open sores ([2]; Side A (test PDT), DAY 4): 4, 4 percentage of patients
- Peeling ([2]; Side A (test PDT), DAY 4): 48 percentage of patients
- Redness ([2]; Side A (test PDT), DAY 4): 83 percentage of patients
- Stinging ([2]; Side A (test PDT), DAY 4): 35, 35 percentage of patients
- Swelling ([2]; Side A (test PDT), DAY 4): 0, 0 percentage of patients
- Pain Score Mean (0-10 visual-analog scale) ([2]; Side A (test PDT), DAY 4): 1.0, 1.0
- Bleeding ([2]; Side B (control PDT), DAY 1): 0, 0 percentage of patients
- Blisters ([2]; Side B (control PDT), DAY 1): 13, 13 percentage of patients
- Burning ([2]; Side B (control PDT), DAY 1): 65, 65 percentage of patients

Reference: patent US12667735B2, “Methods for reducing pain during photodynamic therapy of actinic keratosis” (Sun Pharmaceutical Industries, Inc., priority 2019, dated 2026)
